Assay [1] concerns the target T1, PhqK (Penicillium fellutanum, UniProt L0E4H0). The assay can be described thus: Michaelis-Menten kinetics of spirocyclization. The following applies: FAD-dependent monooxygenase reaction; details in supplement. In kind it is biochemical.
Assay [2] addresses T1, PhqK. The assay can be described thus: crystal structures. In kind it is binding. Particulars: out conformation with and without substrate.

T1 sequence (L0E4H0 whole entry): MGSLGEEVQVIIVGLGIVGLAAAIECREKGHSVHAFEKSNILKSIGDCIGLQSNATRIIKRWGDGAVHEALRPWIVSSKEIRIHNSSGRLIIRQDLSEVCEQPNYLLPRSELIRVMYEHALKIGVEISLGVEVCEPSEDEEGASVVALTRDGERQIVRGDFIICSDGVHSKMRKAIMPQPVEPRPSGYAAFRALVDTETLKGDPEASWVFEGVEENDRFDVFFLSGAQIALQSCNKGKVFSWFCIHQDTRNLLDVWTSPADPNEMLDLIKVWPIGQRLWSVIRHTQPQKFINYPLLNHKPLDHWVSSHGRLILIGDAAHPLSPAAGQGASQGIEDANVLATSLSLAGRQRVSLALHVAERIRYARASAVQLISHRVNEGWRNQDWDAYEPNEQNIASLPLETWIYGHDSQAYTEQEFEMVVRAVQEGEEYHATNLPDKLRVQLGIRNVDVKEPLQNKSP

Take paraherquamide L [compound 15]: the Michaelis constant (Km) at PhqK [1] was 19.4 ± 5.2 µM.
As for `Cc1cc2nc3c(=O)[nH]c(=O)nc-3n(C[C@H](O)[C@H](O)[C@H](O)COP(=O)(O)OP(=O)(O)OC[C@H]3O[C@@H](n4cnc5c(N)ncnc54)[C@H](O)[C@@H]3O)c2cc1C` [FAD], the “crystal structures (ligand-free 1.71 Å and substrate complexes)” value at PhqK [2] is “substrate bound and unbound PhqK structures, the flavin was observed in the “out” conformation”.

In general, Km refers to the substrate concentration at which the rate is half of its maximum.

These data come from paper PMC7065246 (Journal of the American Chemical Society, 2020).
